Experimental data reported in paper PMC9606270, “First direct evidence for direct cell-membrane penetrations of polycationic homopoly(amino acid)s produced by bacteria” (Communications Biology, 2022).

B1: Cre: recombinant Cre recombinase (38 kDa), unconjugated control (protein, UniProt P06956 1-343, looked up)
Recombinase cre: MSNLLTVHQNLPALPVDATSDEVRKNLMDMFRDRQAFSEHTWKMLLSVCRSWAAWCKLNNRKWFPAEPEDVRDYLLYLQARGLAVKTIQQHLGQLNMLHRRSGLPRPSDSNAVSLVMRRIRKENVDAGERAKQALAFERTDFDQVRSLMENSDRCQDIRNLAFLGIAYNTLLRIAEIARIRVKDISRTDGGRMLIHIGRTKTLVSTAGVEKALSLGVTKLVERWISVSGVADDPNNYLFCRVRKNGVAAPSATSQLSTRALEGIFEATHRLIYGAKDDSGQRYLAWSGHSARVGAARDMARAGVSIPEIMQAGGWTNVNIVMNYIRNLDSETGAMVRLLEDGD
B2: 16: Cre recombinase (38 kDa) conjugated with 8 (conjugate, UniProt P06956 1-343, looked up)
Recombinase cre: B1 Recombinase cre
modifications: conjugated to ε-poly-α-lysine polymer 8

Legend:
peptidases/proteinases = conditions: due to isopeptide-bond linkages; cited from earlier work
Text: In this context, a bacterium-origin polycationic polymer, ε-PαL (1) (Fig. 1a), has garnered increasing interest in recent years as an alternative to canonical cationic CPPs. […] However, the cati ... || Practical intracellular delivery of biological macromolecules (biopharmaceuticals) would dramatically transform therapeutic approaches and foster experimental breakthroughs because numerous potential drug targets (cytokines, growth factors, and signal transduction proteins) are in the cell interior[44]. CPPs are among the most promising strategies, and CPP-driven technology currently revolves around natural and synthetic eupeptides. Poly-L/D-arginine[13]–[15], poly-L-histidine[45], and poly-L/D-lysine[46], which were chemically or genetically produced, have been used as CPPs. To enable the del ...

mammalian cells = conditions: cited from earlier work
Text: (§1) In this context, a bacterium-origin polycationic polymer, ε-PαL (1) (Fig. 1a), has garnered increasing interest in recent years as an alternative to canonical cationic CPPs. […] However, the cati ...

[1] = cited from earlier work
Text: as §1

[2] = cited from earlier work; remark: listed apart in the source
Text: To address the growing worldwide demand for CPPs, structurally and functionally distinct CPPs are required to circumvent the canonical CPP drawbacks such as cytotoxicity. This study, therefore, focused on the cytotoxicities of ε-PαL (1) against mammalian cells, while the nontoxicity of 1 in vivo has also been reported so that ε-PαL is used as a natural food preservative in several countries[1],[42]. However, the in vitro cytotoxicity of 1 in other cell lines has remained unclear. We therefore performed the MTT cell viability assay with 1 in K562, HepG2, and HEK293T cells in addition to HeLa ce ...

HeLa cells = conditions: cited from earlier work
Text: page 5: Response to reviewers … Reviewer #1: Thank you so much for your valuable comments concerning our original manuscript. Your comment #1: The manuscript is well prepared and written except for the cytotoxicity of these polycationic isopeptides. […] However, we did n ...

[3] = system: Cre/loxP recombination in HEK293T cells; assay: Cre/loxP recombination by intracellularly delivered Cre (reporter plasmid pmKO_loxP_mAG); assay type: cell-based, human; conditions: HEK293T transfected with pmKO_loxP_mAG; 50 μM, 60 min, 37°C, then 24 h culture; microscopy; mean ± s.d. (n = 3)
Text: The synthetic DNA fragment carrying two loxP sequences, one TGA stop codon, and the ampicillin resistance gene (Amp^r gene) (Supplementary Table 30) was ligated with pmKO1-MC1 digested by Bam HI and Eco RI. The resulting plasmid, pmKO_loxP, was digested with Eco RI and Hind III and ligated with the mAG gene fragment amplified by the PCR primers (pmKO1_mAG-F and pmKO1_mAG-R, Supplementary Table 29) to yield the Cre activity reporter plasmid (pmKO_loxP_mAG).
HEK293T cells were transfected with the plasmid pmKO_loxP_mAG using FuGENE Transfection (Promega) according to the manufacturer’s specifications. The cells were washed with DMEM medium and then treated with 50 µM of ε-PαL-Cre (16) at 37 °C for 60 min. The cells were then washed with PBS, followed by 100 µg ml^−1 heparin in PBS, and then two more times with PBS. Finally, fresh DMEM containing 10% FBS was added and incubated at 37 °C for 24 h to express a fluorescent protein. The live-cell imaging was captured by fluorescence microscopy (Leica DMi8).

| Molecule | Proteolytic resistance (peptidases/proteinases) | Gene recombination ratio (green cells) [3] | further results |
| --- | --- | --- | --- |
| ε-poly-L-α-lysine [Compound 1] | proteolytic resistance | – | Cytotoxicity (mammalian cells): nondetectable levels; Antimicrobial activities [1]: potent; Toxicity in vivo [2]: nontoxicity |
| ε-oligo-L-β-lysine [Compound 2] | resistant to peptidases/proteinases | – | Cytotoxicity in HeLa cells (HeLa cells): no cytotoxicity |
| B1 | – | 6.8% ± 0.1% | – |
| B2 | – | 65.6% ± 2.7% | – |
